The values that follow come from US7071311B2, “Antibodies having specificity for 2′-C-allyl nucleic acids” (Sirna Therapeutics, Inc., priority 2002, dated 2006).

For one data set, the system named is CA1USR mAb. Put plainly: Competition enzyme immunoassay (EIA): nucleotide competitors against CA1USR mAb binding to 2′-deoxy-2′-C-allyl Uridine-KLH. The conditions noted are these: competitor nucleotides 500 to 7.8 μg/ml preincubated with CA1USR mAb; DNA-Bind plates coated with 2′-deoxy-2′-C-allyl Uridine-KLH; FIG. 2. Further details: species or system murine. Here is the method:
N-oxy-succinimide ester derivatized 96 well plates (DNA-Bind; Costar/Corning, Corning, N.Y.) were coated overnight at room temperature with 50 ng/well of 2′-deoxy-2′-C-allyl Uridine-KLH. After two washes with phosphate buffered saline, 0.1% Tween (PBS-T), plates were blocked for 1 h with PBS plus 1% casein (Pierce, Rockford, Ill.). Hybridoma supernatant was incubated on the plates for 1 h, after which wells were washed 4 times with PBS-T. Positive wells were detected with peroxidase-conjugated F(ab)′2 Goat anti-mouse IgG (Pel-Freez, Rogers, Ark.), and developed with TMB substrate (Kirkegaard and Perry, 2 component; Gaithersburg, Md.). Plates were read on a Molecular Dynamics plate reader (Molecular Dynamics, Sunnyvale, Calif.) at 450 nm with 595 nm correction.
DNA-Bind plates were coated overnight with 50 ng/well of 2′-deoxy-2′-C-allyl Uridine-conjugated KLH. 60 μl volumes of the purified CA1USR mAb, at a concentration of 500 ng/ml, were incubated at 37° C. for 30 min with 60 μl volumes of a series of concentrations of competitor nucleotides, from a concentration of 500 to 7.8 μg/ml. The antibody-competitor mixtures were then plated on the 2′-C-allyl-KLH coated DNA-Bind plates, and the EIA proceeded as described for the fusion screening assay.

A short description of data set [1]: Immunohistochemistry with CA1USR mAb on kidneys of ribozyme-treated mice (in vivo localization). The settings on record: for CA1USR mAb immunoreactivity (staining) in kidney: 3 subcutaneous injections of 100 mg/kg, kidney sections stained with CA1USR mAb 5 μg/ml. As to the method:
Tissues were harvested from mice injected subcutaneously with either saline or a ribozyme from 60 to 120 min after injection. Animals were perfused with normal saline, then with a solution of 3% paraformaldehyde, 0.5% gluteraldehyde prior to tissue harvest. The tissue was placed in a 30% sucrose solution at 4° C. overnight, then removed, and frozen in a Gentle Jane (Instrumedics; Hackensack, N.J.) Snap-Freezing System with Cryo-Gel Embedding Medium (Instrumedics). Five micron (μm) sections were cut and placed on slides; the slides were allowed to air dry. Prior to staining, slides were quenched in 3% hydrogen peroxide and 0.5% horse serum in PBS, then blocked with M.O.M. Mouse Ig Blocking Reagent (Vector Labs, Burlingame, Calif.) for 1 h, washed with PBS, and stained with the CA1USR MAb at 5 μg/ml in M.O.M. diluent for 30 min. After washing, slides were incubated with M.O.M. Biotinylated Anti-Mouse IgG Reagent for 10 min, washed, and incubated with Vectastain Elite ABC Reagent for 5 min, then developed in DAB chromogen (Vector Labs). Slides were rinsed, counterstained with hematoxylin (Richard-Allan Scientific, Kalamazoo, Mich.), dehydrated, and cover-slipped. Slides were viewed on a Nikon Microphot FXA microscope.

`C=CC[C@@H]1[C@H](O)[C@@H](CO)O[C@H]1n1ccc(=O)[nH]c1=O` [2′-deoxy-2′-C-allyl Uridine]: the “inhibition of binding of CA1USR mAb to 2′-deoxy-2′-C-allyl Uridine-KLH” value with CA1USR mAb was “able to inhibit”. On to “unmodified HERZYME™ ribozyme: ribozyme targeted to Her2 mRNA, structure different from the hammerhead motif (GCAGUGGCCGAAAGGCGAGUGAGGUCUAGCUCA; called unmodified, meaning without 2'-C-allyl U14, full chemistry not given here)”, for which the “CA1USR mAb immunoreactivity (staining) in kidney” value in data set [1] is given as “no staining”. In the case of “ANGIOZYME® ribozyme: synthetic 35-mer hammerhead ribozyme directed against VEGFR-1 mRNA with 2′-deoxy-2′-C-allyl Uridine at U4 (GAGUUGCUGAUGAGGCCGAAAGGCCGAAAGUCUG; 2'-deoxy-2'-C-allyl uridine at U4, chemistry not fully specified)”, the “Hematoxylin and eosin microscopy of granular structures in treated kidneys” value in data set [1] (3 subcutaneous 100 mg/kg injections, kidney) is reported as “basophilic in character”. For the same compound, in data set [1], the “CA1USR mAb immunoreactivity (staining) in kidney” value is reported as “intense 2′-deoxy-2′-C-allyl Uridine mAb immunoreactivity”.
